Source: patent publication US8355136B2, “Sub-micron surface plasmon resonance sensor systems” (Indiana University Research and Technology Corporation, priority 2005, dated 2013)
Where two headings read alike, the source gives them in different places.

Experiments:
GOx [1] = biological target: T1, GOx (Aspergillus niger, UniProt P13006); assay: MSPR sensor monitoring of Gox enzymatic activity under substrate flow; conditions: for enzymatic activity response of Gox: flow of substrate, concentration not given
T1 sequence (P13006 23-605 limits assumed): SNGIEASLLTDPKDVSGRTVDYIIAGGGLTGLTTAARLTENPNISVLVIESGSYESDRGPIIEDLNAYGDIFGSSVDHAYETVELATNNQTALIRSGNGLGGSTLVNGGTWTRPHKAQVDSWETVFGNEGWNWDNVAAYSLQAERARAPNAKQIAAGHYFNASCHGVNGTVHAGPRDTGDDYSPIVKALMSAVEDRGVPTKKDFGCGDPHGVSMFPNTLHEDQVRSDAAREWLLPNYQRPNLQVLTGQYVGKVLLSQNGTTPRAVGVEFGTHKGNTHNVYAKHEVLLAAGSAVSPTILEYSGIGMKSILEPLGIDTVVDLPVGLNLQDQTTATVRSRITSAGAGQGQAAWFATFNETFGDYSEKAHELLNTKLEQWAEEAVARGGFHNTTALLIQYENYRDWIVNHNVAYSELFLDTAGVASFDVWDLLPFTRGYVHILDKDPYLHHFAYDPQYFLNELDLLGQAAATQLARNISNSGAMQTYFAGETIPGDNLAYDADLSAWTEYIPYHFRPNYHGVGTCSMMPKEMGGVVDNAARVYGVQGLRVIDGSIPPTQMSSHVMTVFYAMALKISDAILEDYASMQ

GOx [2] = biological target: T1, GOx; conditions: cited from earlier work
GOx [3] = biological target: T1, GOx; conditions: for relative rate ± error / Ssubstrate − SL-Glu / Isubstrate / S/N / signal (Ibaseline − Isubstrate): 100 mM in PBS, 660 nm; for relative rate ± error: from exponential fits to the time series; for Ssubstrate − SL-Glu: signal minus L-Glu reference signal; for Isubstrate / S/N / signal (Ibaseline − Isubstrate): single MSPRS
Description: The resonance measured at 660 nm wavelength was used to monitor reaction kinetics because it had the least overlap with neighboring peaks and because it lay in the red-NIR (near infra-red) optical window of tissue transparency, which allows use of MSPRSs to study complex media like blood, blood plasma and serum.
After depositing the cross-linker, we rinsed the end of the tubing for 10 s with DI-water using a 1 mL syringe. […] After the MSPR sensor signal reached a stable plateau indicating reaction saturation, the sensors were rinsed with DI-water until no further change in signal was recorded.

[4] = MSPR sensor, monolayer formation / adsorption kinetics on the gold surface
[5] = Biacore 3000 bare-gold-surface SPR chip, gold-DTSSP binding
[6] = Biacore 3000

Compound	reaction rate with GOx as % of the βD-Glu rate (GOx [2]) [%]	relative rate ± error (GOx [3]) [%]	Ssubstrate − SL-Glu (GOx [3]) [counts/s]	Isubstrate (GOx [3]) [counts/s]	S/N (GOx [3])	signal (Ibaseline − Isubstrate) (GOx [3]) [counts/s]	also measured
O=C[C@@H](O)[C@H](O)[C@@H](O)[C@@H](O)CO [L-Glu, L-Glucose]	0	0.00 ± 0	0	22236	21 (13.2 dB)	521	enzymatic activity response of Gox (GOx [1]): no enzymatic activity response; interaction between substrate and sensor (GOx [3]; wash-in and wash-out, PBS baseline): absence of both specific and non-specific interactions
OC[C@H]1OC(O)[C@@H](O)[C@@H](O)[C@@H]1O (stereo partly drawn) [D-Man]	1	0.24 ± 28	58	22168	36 (15.5 dB)	579	–
O=C(CCSSCCC(=O)ON1C(=O)CC(S(=O)(=O)O)C1=O)ON1C(=O)CC(S(=O)(=O)O)C1=O (centres unmarked) [DTSSP]	–	–	–	–	–	–	time constant of monolayer formation ([4]; Example 5, phosphate buffer pH 5.8 and DI water): 105 ± 8 s; reaction time, gold-DTSSP binding ([4]; Example 6, MSPR sensor, 660 nm, exponential fit): 209 ± 7 s; gold-DTSSP reaction time longer on MSPR sensor than on Biacore ([4]; MSPR sensor versus Biacore 3000): ca. 12%; decrease of MSPR sensor-emitted intensity at 660 nm ([4]; saturated gold-DTSSP reaction, from water baseline): 1,481 counts/s; SPR binding signal [5]: 643 RU; reaction time, gold-DTSSP binding ([5]; exponential fitting): 184 ± 3 s
CCCCCCCCCCCCS [dodecanethiol]	–	–	–	–	–	–	time constant for the film formation ([4]; 100 mM concentration, from ethanol, first order exponential decay fit): 382 ± 7 s
O=CC[C@@H](O)[C@H](O)[C@H](O)CO [2Do-Glu, 2-Deoxy-D-Glucose]	20	0.06 ± 65	14	22190	57 (17.5 dB)	535	enzymatic activity response of Gox (GOx [1]): no enzymatic activity response
OC[C@H]1O[C@H](O)[C@H](O)[C@@H](O)[C@@H]1O [αD-Glu, α-D-glucose]	0.64	–	–	–	–	–	–
glucose oxidase [GOx]	–	–	–	–	–	–	SPR binding signal [6]: 553 RU; reaction time, DTSSP-GOx binding ([6]; exponential fitting): 211 ± 4 s; decrease of output signal on binding (6.25 μM in DI-water, from DTSSP baseline): 1,424 counts/s; reaction time, DTSSP-GOx binding (Example 6, MSPR sensor, exponential fit): 211 ± 4 s
OC[C@H]1O[C@@H](O)[C@H](O)[C@@H](O)[C@@H]1O [β-D+Glucose]	–	–	–	–	–	–	enzymatic activity of Gox detected (GOx [1]; 1 mM in PBS 1×): the response was much slower; enzymatic activity of Gox detected (GOx [1]; 100 mM in PBS 1×): able to detect the enzymatic activity
